Patent US20050282154A1 (priority 2003, published 2005)

What was measured:
[1] = test system: SARS-CoV S protein-expressing 293 T cells and ACE-2-expressing 293 T cells; assay type: cell-based, human
[2] = test system: S1 domain of the SARS-CoV S protein; assay type: binding

## soluble ACE-2
[1]
  blocking of syncytia formation mediated by the SARS-CoV S protein: partially blocked
[2]
  blocking of association of S1-Ig (S1 domain) with Vero E6 cells: blocked association
